In PubChem BioAssay AID652241 (Broad Institute, 2013):
Inconclusive results are not listed. Active and inactive are the calls of the source.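 How the source made its calls: active means fitted curve reaches activity 50 in the expected rising direction at or below the top valid tested dose; inconclusive means no clear call, values can overlap the other calls; inactive means activity in the wrong direction, and the rest.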 Square brackets hold non-standard residues; d marks the D form. Peptide text beside a SMILES is read from it. ξ: configuration not given here. Ac5c = NC1(C(=O)O)CCCC1; ξP = O=C(O)C1CCCN1

Target: Virion infectivity factor (Human immunodeficiency virus type 1 group M subtype B (isolate BH10)) + Virion infectivity factor (Human immunodeficiency virus type 1 group M subtype B (isolate BRU/LAI)) + Virion infectivity factor (Human immunodeficiency virus type 1 group M subtype B (isolate PCV12)) + Virion infectivity factor (Human immunodeficiency virus type 1 group M subtype B (isolate HXB2)) (UniProt P69720+P69721+P69722+P69723)
Assay: Vif multimerization inhibitor potency, dose response, imaging, HEK293T, cherry-picks (AID 652241);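 further: imaged cell signal that rises when Vif self-association is disrupted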
Conditions: 24 h

| activity, higher = inhibition (at 19.5 µM (top of the series)) | further results | SMILES |
| --- | --- | --- |
| inactive |  | Cc1ccc(C(=O)NC(CCc2ccccc2)C(=O)O)cc1 (stereo not given) |
|  | AC50: 5.96 µM | COC(=O)c1ccc(NCc2cc(O)ccc2O)cc1 |
| inactive |  | COc1ccc(N=C2NC(=O)S/C2=C\c2ccc(N(C)C)cc2)cc1 |
|  | AC50: 7.22 µM | CCc1ccc2[nH]c3nc(SCC(=O)NNC(=O)c4ccc(C(C)(C)C)cc4)nnc3c2c1 |
| inactive |  | COc1ccc(NC(=O)Cn2nnc(C(=O)Nc3ccccc3C)c2N)cc1 |
| inactive |  | CN(C)C(=O)c1cc(Br)ccc1Cl |
| inactive |  | Cc1ccc(NC(=O)Cn2ncn3c(cc4ccccc43)c2=O)c(C)c1 |
|  | AC50: 14.1 µM | O=C(NCc1ccccc1C(F)(F)F)c1cccc2c1C(=O)c1ccc(N3CCCCC3)cc1S2(=O)=O |
| inactive |  | CN(C)c1ccc(C(O)Cc2nc3ccccc3n2C)cc1 (stereo not given) |
| inactive |  | Cc1ccc(N(C)S(=O)(=O)c2ccc(-c3ccc(=O)[nH]n3)s2)cc1C |
|  | AC50: 7.26 µM | CCOc1cc(/C=C2\CN(CC)C/C(=C\c3ccc(O)c(OCC)c3)C2=O)ccc1O |
| inactive |  | Cc1nn(C)cc1CN(C)Cc1ccc(OCC(O)CN2CCCCC2)cc1 (stereo not given) |
|  | AC50: 3.89 µM | O=C(Nc1ccc(-c2nc3ccc(NC(=O)c4cccs4)cc3[nH]2)cc1)c1cccs1 |
| inactive |  | CCN1c2ccccc2NC2C1C(C(C)=O)C(=O)N2c1ccc(Cl)cc1 (stereo not given) |
| inactive |  | CCCCCCOC(=O)C(C#N)c1nc2ccccc2nc1N1CCOCC1 (stereo not given) |
| inactive |  | O=C(c1cc(-c2ccncc2)nc2ccccc12)N1CCN(Cc2ccccc2)CC1 |
| inactive |  | COc1cccc(CNc2ccc3c(c2)CCC3)c1 |
| inactive |  | CCN(C(=O)COc1ccc(C)cc1OC)c1cccc2ccccc12 |
| inactive |  | COc1cc(-c2cc(=O)c3c(O)c(OC)c(OC)cc3o2)cc(OC)c1O |
|  | AC50: 5.7 µM | Cc1ccc(C(c2cc(Cl)c3cccnc3c2O)N2CCN(C)CC2)cc1 (stereo not given) |
| inactive |  | COc1ccc(-c2csc(-c3cccnc3)n2)cc1C |
|  | activity, higher = inhibition (at 2.1 µM (top of the series)): inactive | Cc1ccc(/C=C2/CNC/C(=C/c3ccc(C)cc3)C2=O)cc1 |
| inactive |  | CCn1c(SCc2nc3ccccc3c(=O)[nH]2)nc2ccccc2c1=O |
| inactive |  | O=c1sc(N2CCN(c3ccc(F)cc3)CC2)nc2ccsc12 |

| activity, higher = inhibition (at 19.5 µM (top of the series)) | further results | SMILES |
| --- | --- | --- |
| inactive |  | O=C(NNC(=O)c1cc2ccccc2oc1=O)c1ccccc1 |
| inactive |  | CCOC(=O)C1(Cc2cccc(OC)c2)CCN(CCO)CC1 |
| inactive |  | Cc1nnc(NC(=O)Cn2nc(C)c3ccccc3c2=O)s1 |
|  | AC50: 8.03 µM | COc1ccc(-c2cc(C(F)(F)F)nc(S(C)(=O)=O)n2)cc1OC |
|  | AC50: > 19.5 µM (inactive) | Cc1nc(-c2ccc(O)c(O)c2)cs1 |
| inactive |  | CCN(CCCNC(=O)C1CCC(=O)N1Cc1ccc(C)cc1)c1cccc(C)c1 (stereo not given) |
| inactive |  | Cc1ccc2c(c1)C1CN(C)CCC1N2S(=O)(=O)c1cccc(C(F)(F)F)c1 (stereo not given) |
| inactive |  | CC(C(=O)O)c1ccc(N2Cc3ccccc3C2=O)cc1 (stereo not given) |
| inactive |  | CN1CCc2c(sc(NC(=O)c3cc(Cl)sc3Cl)c2C(N)=O)C1 |
| inactive |  | Cc1ccc(-c2nn3c(C)nnc3c3ccccc23)cc1S(=O)(=O)NCc1ccccc1 |
|  | AC50: 5.9 µM | CC(=O)Nc1ccc(NC(=O)COc2ccccc2C(=O)Nc2cccc(Cl)c2Cl)cc1 |
| inactive |  | NS(=O)(=O)c1ccc(-c2ccc(/C=C3\SC(=O)NC3=O)o2)cc1 |
| inactive |  | CCCCOc1ncnc2c1[nH]c1ccccc12 |
| inactive |  | Cc1ccc(C(=O)COC(=O)c2cc(=O)[nH]c3ccccc23)cc1C |
| inactive |  | CC(C)(C)NC(=O)CN(Cc1ccc(F)cc1)C(=O)Cn1nnc(-c2ccc(F)cc2)n1 |
| inactive |  | CC1CN(S(=O)(=O)c2cccc(C(=O)N3CCC(C(N)=O)CC3)c2)CC(C)O1 (stereo not given) |
| inactive |  | CCOC(=O)C1CCCN1C(=O)C1(NC(C)=O)CCCC1 (stereo not given) (Ac-[Ac5c]-[ξP]-OEt) |
|  | AC50: 7.05 µM | Cc1cc(NC(=O)CSc2nc3c(sc4ccccc43)c(=O)n2CCCN2CCOCC2)n[nH]1 |
| inactive |  | CCOc1ccc(C(C)=O)cc1COC(=O)c1cc([N+](=O)[O-])ccc1N1CCOCC1 |
| inactive |  | Cc1cc(/C=C2\C(=N)N3C(SCc4ccccc4)=NSC3=NC2=O)c(C)n1Cc1ccccc1 |
| inactive |  | Cc1cc(-c2nnc(SCC(=O)c3ccc(Cl)cc3)o2)no1 |
| inactive |  | CCOC(=O)C[C@@H](C#N)NC(=O)[C@@H]1CCCN1C(=O)[C@@H](NC(=O)c1ccc(N)c(Cl)c1)C(C)(C)C |
|  | activity, higher = inhibition (at 6.8 µM (top of the series)): inactive | N#Cc1cc2c(=O)n3ccccc3nc2n(-c2ccccc2Cl)c1=O |
| inactive |  | COC(=O)c1sc(-c2ccc(Cl)cc2)cc1NC(=O)CSCC(=O)O |

| activity, higher = inhibition (at 19.5 µM (top of the series)) | further results | SMILES |
| --- | --- | --- |
| inactive |  | Cc1ccc(S(=O)(=O)NC(=O)Nn2c(C)nnc2C)cc1 |
| inactive |  | COC(=O)N1C(=O)[C@](c2ccc(Cl)cc2)(C(C)C)N1C(=O)OC |
|  | AC50: 17.2 µM | COC(=O)c1ccc(Oc2coc3cc(OCc4cnn(-c5ccccc5)c4)ccc3c2=O)cc1 |
| inactive |  | O=C(CN(C(=O)c1csnn1)c1ccc(F)cc1)NCc1ccc2c(c1)OCO2 |
| inactive |  | Cc1nnc(NC(=O)CSc2nnc(NC(=O)C(C)(C)C)s2)s1 |
| inactive |  | CCC(C)NC(=O)Cn1c(=O)n(-c2ccccc2)c(=O)c2ccc(C(=O)NCc3ccco3)cc21 (stereo not given) |
| inactive |  | O=C(CCc1ccccc1)Nc1ccccc1 |
| inactive |  | O=C(NC1CCCc2ccccc21)c1ccccc1Br (stereo not given) |
| inactive |  | CC(O)CN(C)CC/C=C1/c2ccccc2CSc2ccccc21 (stereo not given) |
| inactive |  | CC(C)CN1C(=O)C(=O)N(CC(=O)c2ccc3c(c2)OCO3)C1=O |
| inactive |  | COc1ccc(-c2coc3cc(O)ccc3c2=O)cc1 |
| inactive |  | CC(=O)Nc1cc(NC(=O)C2C3C=CC(C3)C2C(=O)O)ccc1Cl (stereo not given) |
| inactive |  | Cc1ccc(-n2c(SCC(=O)Nc3ccc4c(c3)OCO4)nnc2-c2cccs2)cc1 |
| inactive |  | CCOc1ccc2c(C)c(C(=O)O)oc2c1OCC |
|  | AC50: 14.4 µM | Cc1ccc(CNC(=O)c2cccc3c2C(=O)c2ccc(N4CCC(C)CC4)cc2S3(=O)=O)cc1 |
|  | activity, higher = inhibition (at 6.8 µM (top of the series)): inactive | CCc1cccc2cc3c(N)c(C(=O)Nc4ccc(S(=O)(=O)N5CCCC5)cc4)sc3nc12 |
|  | AC50: 14.1 µM | Cc1nnc2ccc(-c3cccc(NS(=O)(=O)c4ccccc4Cl)c3)nn12 |
| inactive |  | COCCN(C(=O)COC(=O)Cc1ccc(Cl)cc1)c1c(N)n(Cc2ccccc2)c(=O)[nH]c1=O |
| inactive |  | COc1ccc(CNC(=O)CN2C(=O)NC(c3ccccc3)(c3ccccc3)C2=O)cc1 |
| inactive |  | CC(C)(C)NC(=O)NC(=O)COc1ccccn1 |
| inactive |  | COc1cc(/C=C/C(=O)O)ccc1S(=O)(=O)N1CCCc2ccccc21 |
|  | activity, higher = inhibition (at 6.8 µM (top of the series)): inactive | COc1ccc(OC)c(/C=C/c2nc3ccccc3[nH]c2=O)c1 |
